This is an account of results in patent US3984411A, “Pyrimidines” (Societe Generale de Recherches et d'Applications …, priority 1975, dated 1976).

Series [1] is described as follows: Toxicity (LD 50) in mice by intravenous and oral application. Type of series: in vivo. As to conditions: mouse, in vivo, cumulative quantal method. The source says: (§1) The toxicities of the compounds according to the invention have been determined on mice CD 1 (Charles RIVER) by intravenous and oral applications. The LD 50, calculated by the cumulative quantal method of J. J. Reed and H. Muench, Am.

Series [2] has as its system mice CD 1 (Charles RIVER). Described as above. As to conditions: mice CD 1, oral; cumulative quantal method. In kind it is in vivo.
From the text: as §1

The subject of another series is glycemia. Nature of the series: Hypoglycemiant effect in the rat, oral, 4 days treatment. As to conditions: for hypoglycemiant effects (in words): oral, 4 days. Type of series: in vivo, male rat CD (Charles RIVER). As to the method: The hypoglycemiant properties have been studied on the male rat CD (Charles RIVER) of 200-250 g, of which the glycemia is controlled after 4 days of daily treatment by oral application. The serum glucose is determined by the method of W. S. Hoffman, J. Biol. Chem., 120, 51 (1937). Groups of 10 rats are used and the hypoglycemiant activity is expressed by the percentage variation of the average glycemia of the treated animals compared with that of the controls. The statistical significance of the differences observed is determined by application of the STUDENT test.

Another series has as its system cholesterolemia. Nature of the series: Hypocholesterolemiant effect in the rat, oral, 4 days treatment. In kind it is in vivo, rat CD (Charles RIVER). As to conditions: for hypocholesterolemiant activities (in words): oral, 4 days. The procedure:
The hypocholesterolemiant effects of the products according to the invention have been studied on the rat CD (Charles RIVER) by oral application. The animals, divided into groups of 10, are treated daily by gastric probe for 4 consecutive days. Four hours after the last administration, the rats are killed and their blood is collected in order to proceed to the determination of the amount of cholesterol according to the method of J. Levine and B. Zak, Clin. Acta, 10, 381 (1964).
The activity of the substances is evaluated by calculating the percentage variation of the average amount of cholesterol of the animals treated with respect to that of the control animals. Then the statistical significance of the differences observed is determined by application of the STUDENT test.

Where [3] appears, read: mice CD 1, intravenous, read-out: Intense toxicities to mice (LD 50), intravenous.
Setting [4] is: 50 mg/kg taken orally, all values significant at p = 0.001.
[5] abbreviates: mice CD 1, oral, read-out: Intense toxicities to mice (LD 50), oral.
Where [6] appears, read: 100 mg/kg taken orally, significant at p = 0.001, except Example 18 at p = 0.05.
Where [7] appears, read: 300 mg/kg taken orally, significant at p = 0.001.
The mark [8] stands for this setting: 100 mg/kg taken orally, significant at p = 0.001.

Molecules are shown by their SMILES. Where a name gives a salt, the structure may show the parent alone. Read-outs that look alike come from different tables or passages of the source. Where only a bound is given, the exact number is not on record here.

Take `COc1c(OC2CCN(C)CC2)nc(N2CCOCC2)nc1OC1CCN(C)CC1` [Example 14, 2-morpholino-4,6-di[(N-methyl-4'-piperidyl)oxy]-5-methoxy-pyrimidine]: the LD50 in series [1] (setting [3]) came to 67 mg/kg. In addition, in series [2], the “Intense toxicities to mice (LD 50), oral” value is “atoxic at 900”. Also, the “Percentage variation of the glycemia compared with the controls after 4 days treament” value (shortened to “Percentage variation of the glycemia”) with glycemia (200 mg/kg taken orally, significant at p = 0.001) is given as -24%.

`Cc1c(OC2CCN(C)CC2)nc(N2CCOCC2)nc1OC1CCN(C)CC1` [Example 15, 2-moropholino-4,6-di[(N-methyl-4'-piperidyl)oxy]-5-methyl-pyrimidine]: in series [1] (setting [3]), the LD50 stood at 81 mg/kg. Besides, the “Intense toxicities to mice (LD 50), oral” value in series [2] is recorded as “atoxic at 900”. The “Variation of the cholesterolemia in % with respect to the controls after 4 days treatment” value (“Variation of the cholesterolemia in %” below) in the series on cholesterolemia (setting [4]) was -31%. Further, in the series with cholesterolemia, the “hypocholesterolemiant activities (in words)” value is reported as “remarkable hypocholesterolemiant activities”. In addition, the “Percentage variation of the glycemia” value with glycemia (50 mg/kg taken orally, significant at p = 0.05) is -12%.

For `CCc1c(OC2CCN(C)CC2)nc(N2CCOCC2)nc1OC1CCN(C)CC1` [Example 16, 2-morpholino-4,6-di[(N-methyl-4'-piperidyl)oxy]-5-ethyl-pyrimidine dihydrobromide], the LD50 in series [1] (setting [3]) is 54 mg/kg; in series [1] (setting [5]) it was about 525 mg/kg. For the same compound, the “Variation of the cholesterolemia in %” value in the series with cholesterolemia (setting [6]) is recorded as -60%. In addition, in the series with cholesterolemia, the “hypocholesterolemiant activities (in words)” value was “remarkable hypocholesterolemiant activities”.

With `CCCCc1c(OC2CCN(C)CC2)nc(N2CCOCC2)nc1OC1CCN(C)CC1` [Example 17, 2-morpholino-4,6-di[(N-methyl-4'-piperidyl)oxy]-5-n-butyl-pyrimidine dihydrochloride], the LD50 in series [1] (setting [5]) is about 225 mg/kg. The “Variation of the cholesterolemia in %” value with cholesterolemia (setting [6]) is -36%.

Take `CN1CCC(Oc2nc(N3CCOCC3)nc(OC3CCN(C)CC3)c2-c2ccc(Cl)cc2)CC1` [Example 18, 2-morpholino-4,6-di[(N-methyl-4'-piperidyl)oxy]-5-p-chlorophenyl-pyrimidine]: the LD50 in series [1] (setting [3]) was 20 mg/kg; in series [1] (setting [5]), about 600 mg/kg. Also, the “Variation of the cholesterolemia in %” value is on record as -14% in the series on cholesterolemia (setting [6]) and -44% in the series on cholesterolemia (setting [7]). The “Percentage variation of the glycemia” value in the series on glycemia (setting [8]) is -29%; in the series with glycemia (setting [7]), -35%. For the same compound, the “hypoglycemiant effects (in words)” value with glycemia is “especially large hypoglycemiant effects”.

`CCOc1c(OC2CCN(C)CC2)nc(N2CCOCC2)nc1OC1CCN(C)CC1` [Example 19, 2-morpholino-4,6-di[(N-methyl-4'-piperidyl)oxy]-5-ethoxy-pyrimidine dihydrochloride]: the LD50 in series [1] (setting [3]) was 70 mg/kg; in series [1] (setting [5]), about 600 mg/kg. The “Percentage variation of the glycemia” value in the series on glycemia (setting [7]) is given as -43%. Moreover, the “hypoglycemiant effects (in words)” value in the series with glycemia was “especially large hypoglycemiant effects”.

`CN1CCC(Oc2nc(N3CCOCC3)nc(OC3CCN(C)CC3)c2Oc2ccc(Cl)cc2)CC1` [Example 20, 2-morpholino-4,6-di[(N-methyl-4'-piperidyl)oxy]-5-p-chlorophenoxy-pyrimidine]: in series [1] (setting [5]), the LD50 is over 900 mg/kg. For the same compound, in the series with cholesterolemia (setting [6]), the “Variation of the cholesterolemia in %” value is -47%. For the same compound, the “hypocholesterolemiant activities (in words)” value in the series on cholesterolemia is “remarkable hypocholesterolemiant activities”. Moreover, the “Percentage variation of the glycemia” value in the series with glycemia (setting [7]) was -27%. For the same compound, the “hypoglycemiant effects (in words)” value in the series on glycemia is “especially large hypoglycemiant effects”.

As for `CN1CCC(Oc2nc(N3CCOCC3)nc(OC3CCN(C)CC3)c2Cc2ccccc2)CC1` [Example 21, 2-morpholino-4,6-di[(N-methyl-4'-piperidyl)oxy]-5-benzyl-pyrimidine], the LD50 in series [1] (setting [3]) was 40 mg/kg; in series [1] (setting [5]), about 800 mg/kg. For the same compound, the “Variation of the cholesterolemia in %” value in the series with cholesterolemia (setting [6]) was -39%. For the same compound, the “Percentage variation of the glycemia” value with glycemia (setting [8]) is -27%. Also, in the series with glycemia, the “hypoglycemiant effects (in words)” value is listed as “especially large hypoglycemiant effects”.

Regarding `CN1CCC(Oc2nc(N3CCOCC3)nc(OC3CCN(C)CC3)c2Cl)CC1` [Example 22, 2-morpholino-4,6-di[(N-methyl-4'-piperidyl)oxy]-5-chloro-pyrimidine], the “Intense toxicities to mice (LD 50), oral” value in series [2] was “atoxic at 900”. Besides, the “Variation of the cholesterolemia in %” value in the series with cholesterolemia (setting [4]) is given as -19%; with cholesterolemia (setting [6]), -45%. Also, the “hypocholesterolemiant activities (in words)” value in the series on cholesterolemia was “remarkable hypocholesterolemiant activities”.

For `CN1CCC(Oc2cc(OC3CCN(C)CC3)nc(N3CCOCC3)n2)CC1` [Example 23, 2-morpholino-4,6-di[(N-methyl-4'-piperidyl)oxy]-pyrimidine], the “Intense toxicities to mice (LD 50), oral” value in series [2] was “atoxic at 900”. In addition, in the series on glycemia (400 mg/kg taken orally, significant at p = 0.001), the “Percentage variation of the glycemia” value is -20%.
